Patent publication US20220389058A1, “PEPTIDES AND COMPOSITIONS FOR USE IN COSMETICS AND MEDICINE” (LIPOTRUE, S.L., priority 2019, published 2022)
Entries after “also recorded” stand apart in the source; their conditions may differ.

Key:
[1] = tested on: recombinant mushroom tyrosinase; assay: Tyrosinase activity, L-DOPA/dopachrome absorbance (Example 11); assay type: biochemical; conditions: 0.05-2.5 mg/mL (Ac-SEQ ID NO: 4-NH2: 0.005-2.5 mg/mL); 30 minutes preincubation, L-DOPA, 2 hours, absorbance 450 nm; vs non-treated control (100%)
Method: Briefly, different concentrations of Ac-SEQ ID NO: 1-NH2 (0.05, 0.25, 0.5 and 2.5 mg/mL), Ac-SEQ ID NO: 2-NH2 (0.05, 0.25, 0.5 and 2.5 mg/mL), Ac-SEQ ID NO: 3-NH2 (0.05, 0.25, 0.5 and 2.5 mg/mL) and Ac-SEQ ID NO: 4-NH2 (0.005, 0.025, 0.05, 0.25, 0.5 and 2.5 mg/mL) and the positive control kojic acid (400 and 800 μM) were incubated with recombinant mushroom tyrosinase for 30 minutes before the addition of L-DOPA (L-3,4 dihidroxiphenilalanine, 2.5 mg/mL in PBS). After 2 hours' reaction at room temperature, the absorbance at 450 nm of each well was determined using the microplate reader Multiskan FC (Thermo Fisher Scientific, Mass., USA), which is directly proportional to the amount of dopachrome in the reaction mixture.

HDFa cells [2] = assay: Gene expression with Ac-SEQ ID NO: 4-NH2, RT-qPCR in HDFa (Example 17); assay type: cell-based, Human; conditions: 0.01 mg/mL, 24 hours
Method: (§1) A stock solution of the peptide was prepared in water at 1 mg/mL. Working solution was freshly prepared at the specified concentration from stock solution in the corresponding supplemented medium.
(§2) RNA (ribonucleic acid) extraction and RT-qPCR (reverse transcription quantitative polymerase chain reaction) were performed. Briefly, HEKa or HDFa cells were seeded in duplicate (n=2) in 6-well plates at a density of 4×10^5 cells/well and maintained at standard culture conditions (106 Medium supplemented with 1% (v/v) LSGS for HDFa cells; Medium Epilife supplemented with 1% (v/v) EDGS and 1% (v/v) penicillin/streptomycin for HEKa cells; 37° C., 95% room humidity, 5% CO2) for 24 hours.
(§3) Then, cells were treated with peptide Ac-SEQ ID NO: 4-NH2 at the concentration of 0.01 mg/mL for 24 hours. Untreated cells were used as basal or negative control.
(§4) Cells were finally lysed, and replicates were pooled together for RNA extraction using Qiagen RNeasy Mini kit following manufacturer's instructions. Purified RNAs were used to generate the corresponding cDNAs (complementary deoxyribonucleic acids) by reverse transcription using a commercial kit High capacity cDNA reverse transcription kit (Applied Biosystems) which served as templates for amplification. RT-qPCR was performed with the panel of appropriate TaqMan assay probes for genes shown in table 10 (plus GAPDH—Glyceraldehyde 3-phosphate dehydrogenase—that was used as housekeeping gene) and 2×gene expression Master Mix using StepOne plus Real-Time PCR instrument. Amplification included 40 cycles of: 15 seconds at 95° C. […] (Annealing and extension) (Arya, M., Shergill, I. S., Williamson, M., Gommersall, L., Arya, N., Patel, H. R. (2005) Basic principles of real-time quantitative PCR. Expert Rev. Mol. Diagn.; 5(2):209-19; and Jozefczuk, J. and Adjaye, J. (2011) Quantitative real-time PCR-based analysis of gene expression. Methods Enzymol. 500; 99-109).
(§5) The obtained data was analysed using the ΔΔCt method, which provides the target gene expression values as fold changes in the treated sample compared with an untreated basal sample. […]

HEKa cells [3] = assay: Gene expression with Ac-SEQ ID NO: 4-NH2, RT-qPCR in HEKa (Example 17); assay type: cell-based, Human; conditions: 0.01 mg/mL, 24 hours
Method: as §1, §2, §3
(§6) Cells were finally lysed, and replicates were pooled together for RNA extraction using Qiagen RNeasy Mini kit following manufacturer's instructions. Purified RNAs were used to generate the corresponding cDNAs (complementary deoxyribonucleic acids) by reverse transcription using a commercial kit High capacity cDNA reverse transcription kit (Applied Biosystems) which served as templates for amplification. RT-qPCR was performed with the panel of appropriate TaqMan assay probes for genes shown in table 10 (plus GAPDH—Glyceraldehyde 3-phosphate dehydrogenase—that was used as housekeeping gene) and 2×gene expression Master Mix using StepOne plus Real-Time PCR instrument. Amplification included 40 cycles of: 15 seconds at 95° C. (denaturation) and 1 minute at 60° C. (Annealing and extension) (Arya, M., Shergill, I. S., Williamson, M., Gommersall, L., Arya, N., Patel, H. R. (2005) Basic principles of real-time quantitative PCR. Expert Rev. Mol. Diagn.; 5(2):209-19; and Jozefczuk, J. and Adjaye, J. (2011) Quantitative real-time PCR-based analysis of gene expression. Methods Enzymol. 500; 99-109).
(§7) The obtained data was analysed using the ΔΔCt method, which provides the target gene expression values as fold changes in the treated sample compared with an untreated basal sample. Both samples were normalized with the relative expression of a housekeeping gene GAPDH (Glyceraldehyde 3-phosphate dehydrogenase).

IL33 = IL33 expression modulation by RT-qPCR in HEKa cells (Example 7); assay type: cell-based, Human; conditions: 0.01 mg/mL, 24 hours
Method: as §1
as §2, with “Briefly, HDFa and” for “Briefly,”, “HEKa” for “HEKa or HDFa”, “hours. Then, cells were treated with peptide Ac-SEQ ID NO: 1-NH2, Ac-SEQ ID NO: 2-NH2 or Ac-SEQ ID NO: 3-NH2 at the concentration of 0.01 mg/mL for 24 hours. Untreated cells were used as basal or negative control.” for “hours.”
as §4, with “the” for “the panel of”, “IL33” for “genes shown in table 10”, “instrument.” for “instrument. Amplification included 40 cycles of: 15 seconds at 95° C.”
as §5

HEKa cells [4] = assay: Expression of genes related to epidermal cell cohesion, RT-qPCR in HEKa (Example 9); assay type: cell-based, Human; conditions: 0.01 mg/mL, 24 hours
Method: as §1
as §2, with “HEKa” for “HEKa or HDFa”, “(Medium” for “(106 Medium supplemented with 1% (v/v) LSGS for HDFa cells; Medium”, “penicillin/streptomycin;” for “penicillin/streptomycin for HEKa cells;”
Then, cells were treated with peptide Ac-SEQ ID NO: 1-NH2, Ac-SEQ ID NO: 2-NH2 or Ac-SEQ ID NO: 3-NH2 at the concentration of 0.01 mg/mL for 24 hours. Untreated cells were used as basal or negative control.
as §6, with “table 1” for “table 10”
as §7

HDFa cells [5] = assay: Expression of genes related with collagen production and extracellular matrix, RT-qPCR in HDFa (Example 10); assay type: cell-based, Human; conditions: 0.01 mg/mL, 24 hours
Method: as §1
RNA (ribonucleic acid) extraction and RT-qPCR (reverse transcription quantitative polymerase chain reaction) were performed. Briefly, HDFa cells were seeded in duplicate (n=2) in 6-well plates at a density of 4×10^5 cells/well and maintained at standard culture conditions (106 Medium supplemented with 1% (v/v) LSGS; 37° C., 95% room humidity, 5% CO2) for 24 hours. Then, cells were treated with peptide Ac-SEQ ID NO: 1-NH2 at the concentration of 0.01 mg/mL for 24 and 48 hours. Untreated cells were used as basal or negative control.
as §6, with “table 5” for “table 10”
as §7

Row | Substance | tyrosinase activity [1] | IL33 gene expression, fold change in treated cells with regard to basal control (IL33) | CLDN4 Fold change between treated cells and basal control (HEKa cells [4]) | OCLN Fold change between treated cells and basal control (HEKa cells [4]) | PCDH1 Fold change between treated cells and basal control (HEKa cells [4]) | PKP2 Fold change between treated cells and basal control (HEKa cells [4]) | TJP1 Fold change between treated cells and basal control (HEKa cells [4]) | FBN1 Fold change between treated cells and basal control (HDFa cells [5]) | MMP1 Fold change between treated cells and basal control (HDFa cells [5]) | other results
1 | Ac-Arg-Arg-Gln-Met-Glu-Glu-NH2 (Ac-RRQMEE-NH2) [Ac-SEQ ID NO: 4-NH2, a peptide not of the present invention, very similar comparison peptide] | did not inhibit tyrosinase activity in any of the concentrations tested; also recorded: from concentration 0.05 mg/mL and onwards it increased tyrosinase activity in a dose-dependent manner |  |  |  |  |  |  |  |  | COL3A1 Fold change between treated cells and basal control (HDFa cells [2]): −1.28 Fold change; IL1RL1 Fold change between treated cells and basal control (HDFa cells [2]): −1.12 Fold change; TIMP2 Fold change between treated cells and basal control (HDFa cells [2]): −1.26 Fold change; CDSN Fold change between treated cells and basal control (HEKa cells [3]): −1.04 Fold change; IL33 Fold change between treated cells and basal control (HEKa cells [3]): −1.01 Fold change; OCLN Fold change between treated cells and basal control (HEKa cells [3]): −1.08 Fold change; SIGIRR Fold change between treated cells and basal control (HEKa cells [3]): −1.49 Fold change; SLC2A1 Fold change between treated cells and basal control (HEKa cells [3]): −1.07 Fold change; TJP1 Fold change between treated cells and basal control (HEKa cells [3]): −1.04 Fold change
2 | Ac-Arg-Glu-Gln-Met-Arg-Arg-NH2 (Ac-REQMRR-NH2) [Ac-SEQ ID NO: 3-NH2] | showed a dose-dependent inhibition of tyrosinase activity at concentrations of 0.25 mg/mL and higher | −3.93 fold change | 1.90 Fold change | 1.99 Fold change | 2.48 Fold change | 1.86 Fold change | 1.43 Fold change | 1.29 Fold change | −1.46 Fold change | CLDN1 Fold change between treated cells and basal control (HEKa cells [4]): 1.5 Fold change; DSC1 Fold change between treated cells and basal control (HEKa cells [4]): 1.41 Fold change; DSC2 Fold change between treated cells and basal control (HEKa cells [4]): 1.43 Fold change; DSP Fold change between treated cells and basal control (HEKa cells [4]): 1.28 Fold change; JUP Fold change between treated cells and basal control (HEKa cells [4]): 1.23 Fold change; PPL Fold change between treated cells and basal control (HEKa cells [4]): 1.52 Fold change; MMP3 Fold change between treated cells and basal control (HDFa cells [5]): −1.30 Fold change
3 | Ac-Met-Arg-Arg-Glu-Gln-Arg-NH2 (Ac-MRREQR-NH2) [Ac-SEQ ID NO: 2-NH2] | showed inhibition of tyrosinase activity in a dose-dependent manner from 0.05 mg/mL and onwards | −3.77 fold change | 1.51 Fold change | 1.58 Fold change | 2.14 Fold change | 1.42 Fold change | 1.34 Fold change | 1.20 Fold change | −1.21 Fold change | 
